Test results reported in the supplement of paper PMC10307832.

Columns and labels:
Assay in all cases: relative viability (nuclei count vs DMSO), 5 days (fraction); higher = more cells survive
BMX-IN-1 + Luminespib = compound: C=CC(=O)Nc1cc(-n2c(=O)ccc3cnc4ccc(-c5ccc(NS(C)(=O)=O)cc5)cc4c32)ccc1C [BMX-IN-1] + CCNC(=O)c1noc(-c2cc(C(C)C)c(O)cc2O)c1-c1ccc(CN2CCOCC2)cc1 [Luminespib] (partner 0.01 µM)
Summary of the method: (§1)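 Nuclei were stained with Hoechst during a one-step fixation (final 0.05% Triton X-100, 1% formaldehyde, 1 ug/ml Hoechst) carried out 5 days after dosing, then counted on 4× images. The cells, lung cancer lines in 1536-well plates, had been dosed by pin tool the day after seeding with one drug alone or a fixed anchor-drug dose plus five library-drug doses (not always all listed) in √10 steps. Relative viability is the nuclei count in treated wells divided by that in vehicle wells, and each value is the median of duplicate plates.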

Ibrutinib + Phenformin = compound: C=CC(=O)N1CCC[C@@H](n2nc(-c3ccc(Oc4ccccc4)cc3)c3c(N)ncnc32)C1 [Ibrutinib] + N=C(N)NC(=N)NCCc1ccccc1 [Phenformin] (partner 250 µM)
Summary of the method: as §1

BMX-IN-1 + Trametinib = compound: C=CC(=O)Nc1cc(-n2c(=O)ccc3cnc4ccc(-c5ccc(NS(C)(=O)=O)cc5)cc4c32)ccc1C [BMX-IN-1] + CC(=O)Nc1cccc(-n2c(=O)n(C3CC3)c(=O)c3c(Nc4ccc(I)cc4F)n(C)c(=O)c(C)c32)c1 [Trametinib] (partner 0.02 µM)
Summary of the method: as §1

Ibrutinib + Navitoclax = compound: C=CC(=O)N1CCC[C@@H](n2nc(-c3ccc(Oc4ccccc4)cc3)c3c(N)ncnc32)C1 [Ibrutinib] + CC1(C)CCC(c2ccc(Cl)cc2)=C(CN2CCN(c3ccc(C(=O)NS(=O)(=O)c4ccc(N[C@H](CCN5CCOCC5)CSc5ccccc5)c(S(=O)(=O)C(F)(F)F)c4)cc3)CC2)C1 [Navitoclax] (partner 0.5 µM)
Summary of the method: as §1

| Cell Line | relative viability (BMX-IN-1 + Luminespib; first compound 0.02 µM) | relative viability (BMX-IN-1 + Luminespib; first compound 0.2 µM) | relative viability (BMX-IN-1 + Luminespib; first compound 0.6325 µM) | relative viability (BMX-IN-1 + Luminespib; first compound 2 µM) | relative viability (Ibrutinib + Phenformin; first compound 0.005 µM) | relative viability (Ibrutinib + Phenformin; first compound 0.01581 µM) | relative viability (Ibrutinib + Phenformin; first compound 0.05 µM) | relative viability (Ibrutinib + Phenformin; first compound 0.1581 µM) | relative viability (Ibrutinib + Phenformin; first compound 0.5 µM) | relative viability (BMX-IN-1 + Trametinib; first compound 0.02 µM) | relative viability (BMX-IN-1 + Trametinib; first compound 0.2 µM) | relative viability (BMX-IN-1 + Trametinib; first compound 0.6325 µM) | relative viability (BMX-IN-1 + Trametinib; first compound 2 µM) | relative viability (Ibrutinib + Navitoclax; first compound 0.005 µM) | relative viability (Ibrutinib + Navitoclax; first compound 0.01581 µM) | relative viability (Ibrutinib + Navitoclax; first compound 0.05 µM) | relative viability (Ibrutinib + Navitoclax; first compound 0.1581 µM) | relative viability (Ibrutinib + Navitoclax; first compound 0.5 µM) |
| --- | --- | --- | --- | --- | --- | --- | --- | --- | --- | --- | --- | --- | --- | --- | --- | --- | --- | --- |
| NCI-H1623 | 0.431 | 0.52 | 0.804 | 0.484 | 0.571 | 0.532 | 0.509 | 0.347 | 0.27 |  |  |  |  |  |  |  |  |  |
| HOP-62 | 1.08 | 1.06 | 0.891 | 0.926 | 0.759 | 0.621 | 0.696 | 0.724 | 0.804 | 0.44 | 0.379 | 0.366 | 0.341 | 1.16 | 1.11 | 1.16 | 1.07 | 1.2 |
| NCI-H727 | 0.33 | 0.366 | 0.343 | 0.243 |  | 0.612 | 0.546 |  | 0.401 | 0.419 | 0.429 | 0.387 | 0.4 | 0.475 | 0.405 | 0.374 | 0.449 | 0.42 |
| ChaGo-K-1 | 0.665 | 0.708 | 0.536 | 0.778 | 0.543 | 0.462 | 0.433 | 0.407 | 0.494 | 0.735 | 0.986 | 0.891 | 0.91 | 0.506 | 1.12 | 0.933 |  | 1.19 |
| BEN | 0.417 | 0.332 | 0.328 | 0.364 |  | 0.23 | 0.282 | 0.283 | 0.247 | 1.15 | 0.909 | 0.96 | 1.03 | 0.0796 | 0.0705 | 0.0699 | 0.0622 | 0.0639 |
| NCI-H596 | 0.917 | 1.02 | 1.02 | 1.01 |  | 0.635 | 0.704 | 0.607 | 0.635 | 0.718 | 0.912 | 0.652 | 0.825 | 0.924 | 0.867 | 0.852 | 0.962 | 0.681 |
| LU99A | 0.216 | 0.181 | 0.227 | 0.258 | 0.889 | 0.8 | 0.837 | 1.05 | 0.846 | 0.515 | 0.548 | 0.548 | 0.572 | 0.725 | 0.684 | 0.772 | 0.814 | 0.664 |
| NCI-H460 | 0.0361 | 0.0362 | 0.0299 | 0.0331 | 0.636 | 0.46 | 0.463 | 0.572 | 0.592 | 0.131 | 0.136 | 0.236 | 0.181 | 1.27 | 1.01 | 1.09 | 1.2 | 1.13 |
| NCI-H1648 |  |  |  |  |  |  |  |  |  | 0.435 | 0.585 | 0.469 | 0.495 |  |  |  |  |  |
| HCC-44 | 1.29 | 1.27 | 0.821 | 1.04 | 0.138 | 0.182 | 0.148 | 0.11 | 0.232 | 1.11 | 1.08 | 1.14 | 1.03 | 0.977 | 0.913 | 0.935 | 0.995 | 0.919 |
| NCI-H647 | 0.242 | 0.294 | 0.179 | 0.379 |  | 0.467 | 0.411 | 0.592 | 0.605 | 0.702 | 0.563 | 0.467 | 0.474 | 1.09 | 1.13 | 1.22 | 1.05 | 1.1 |
| Calu-6 |  |  |  |  |  |  |  |  |  |  |  |  |  | 0.954 | 0.746 | 0.771 | 0.955 | 0.756 |
| 201T | 1.07 | 1.1 | 1.09 | 0.98 | 0.449 | 0.443 | 0.442 | 0.429 | 0.412 | 0.703 | 0.733 | 0.744 | 0.694 | 1.22 | 1.17 | 1.17 | 1.22 | 1.17 |
| CAL-12T | 0.578 | 0.483 | 0.392 | 0.712 | 0.546 | 0.447 | 0.362 | 0.651 | 0.35 | 0.342 | 0.318 | 0.31 | 0.36 |  | 1.16 | 1.33 | 1.37 | 0.951 |
| HCC-78 |  |  |  |  | 0.541 | 0.787 | 0.575 | 0.616 | 0.559 | 0.801 | 0.967 | 0.717 | 0.896 | 0.785 | 0.746 | 0.722 | 0.696 | 0.566 |
| LK-2 | 0.197 | 0.219 | 0.176 | 0.207 |  | 0.529 | 0.396 | 0.357 | 0.282 | 0.943 | 1.02 | 0.793 | 0.847 |  | 0.7 | 0.851 | 0.956 | 0.75 |
| NCI-H522 | 1.24 | 1.26 | 1.1 | 1.19 | 0.627 | 0.545 | 0.688 | 0.582 | 0.622 | 0.687 | 0.805 | 0.728 | 0.744 |  |  |  |  |  |
| NCI-H322M | 0.847 | 0.807 | 0.756 | 0.883 | 0.715 | 0.675 | 0.675 | 0.676 | 0.569 | 0.501 | 0.504 | 0.532 | 0.443 | 1.21 | 1.18 | 1.26 | 1.25 | 0.724 |
| COR-L 105 | 0.753 | 0.693 | 0.928 | 0.706 | 0.455 | 0.348 | 0.406 | 0.531 | 0.242 | 0.427 | 0.444 | 0.422 | 0.403 | 0.548 | 0.74 | 0.625 | 0.681 | 0.385 |
| LOU-NH91 | 0.3 |  | 0.363 | 0.315 | 0.59 | 0.642 | 0.557 | 0.711 | 0.45 |  | 0.814 | 0.849 | 0.784 | 0.601 | 0.572 | 0.549 | 0.585 | 0.407 |
